Source: patent US12624018B1, “Inhibitors of RIPK2 and medical uses thereof” (Odyssey Therapeutics, Inc., priority 2022, dated 2026)
Where two headings read alike, the source gives them in different places.

What was measured:
[1] = biological target: T1, RIPK2 enzyme (Homo sapiens, UniProt O43353); experiment: RIPK2 inhibition (ADP-Glo Kinase Assay); assay type: biochemical; details: RIPK2 5 nM, ATP 150 μM, MBP substrate, read-out: RIPK2 IC50
T1 construct: purchased Carna 09-128
How it was run: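 Swine MBP substrate; compound and 5 nM RIPK2 first mixed for 30 min at room temperature; buffer pH 7.5 HEPES 50 mM with 10 mM MgCl2, 2 mM DTT, 1 mM EGTA, Brij-35, BSA.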

[2] = test system: human NOD2 signaling; experiment: Inhibition of human NOD2 signaling in HEK-Blue-hNOD2 cells (L18-MDP stimulated, SEAP reporter); assay type: cell-based; details: NOD2 ligand stimulation, SEAP reporter, read-out: hNOD2 IC50
Experimental: Materials: Human NOD32-expressing 1TEK293 cells, HEK-Blue™-hNOD2 cells, were developed by Invivogen (catalogue number: hkb-hnod2) using co-transfection of the human NOD2 gene and an optimized secreted embryonic alkaline phosphatase (SEAP) reporter gene into HTEK293 cells. The cell maintenance medium consisted of DMEM (Giboc, 21063-029), heat inactivated FBS, penicillin (100 U/mL), streptomycin (100 μg/mL), Normocin (100 μg/mL), Blasticidin (30 μg/mL), and Zeocin (100 μg/mL). HEK-Blue™-hNOD2 cells were transferred to assay medium consisting of DMEM (Giboc, 21063-029), heat inactivated FBS, penicillin (100 U/mL) and streptomycin (100 μg/mL) prior to stimulation. Stimulation with a NOD2 ligand, L18-MDP (Invivogen, catalogue number: tlrl-lmdp) activated NF-κB and AP-1 which induced the production of SEAP. Levels of SEAP were determined with HEK-Blue™ Detection (referred to as QUANTI-Blue solution), a cell culture medium that allows for real-time detection of SEAP. QUANTI-Blue solution was prepared by adding 1 mL of QB reagent and 1 mL of QB buffer to 98 mL of sterile H2O. Test compounds were prepared into a 10 mM DMSO solution and were serially diluted into 10 points using a 3-fold dilution in a 384 well plate using a TECAN EVO200.
Method: In a 384 well plate, 40 nL of test compound was dispensed using Echo550. HEK-Blue™-hNOD2 cells (Invivogen) were prepared into a cell suspension and 40 μL of the cell suspension (12500 cells per well) was dispensed into the 384 well plate. To activate NOD2 signaling, 40 nL of L18-MDP (final concentration of 0.5 ng/mL) was added and the plate was incubated at 37° C. in a CO2 incubator for 24 hours. After the 24-hour incubation, 5 μL of the induced HEK-Blue hNOD2 cell supernatant was transferred to a new 384-well plate, centrifuged, and 45 μL of QUANTI-Blue solution was added per well and incubated for 3 hours at 37° C. SEAP levels were measured using an Ensight at 620 nm. Percent inhibition of NOD2 signaling was determined using the following equation: (high control−test compound signal)/(High control−low control)×100. The reaction high control was determined using wells with DMSO, cells, L18-MDP, and QUANTI-Blue solution. The reaction low control was determined using wells with DMSO, cells, and QUANTI-Blue solution. 4-parametric curve fit was used to determine the test compound concentration that results in 50% reduction of L18-MDP-driven human NOD2 signaling.
Using the assay described above, inhibition of hNOD2 signaling was also evaluated for GSK 2983559 (Haile at al., J. Med. Chem. 2019, 62, 14, 6482-6494), a known RIPK2 kinase inhibitor: […]

[3] = Homo sapiens, HEK-Blue hNOD2, HEK-Blue-hNOD2 cells

T1 sequence (O43353 1-299 limits assumed): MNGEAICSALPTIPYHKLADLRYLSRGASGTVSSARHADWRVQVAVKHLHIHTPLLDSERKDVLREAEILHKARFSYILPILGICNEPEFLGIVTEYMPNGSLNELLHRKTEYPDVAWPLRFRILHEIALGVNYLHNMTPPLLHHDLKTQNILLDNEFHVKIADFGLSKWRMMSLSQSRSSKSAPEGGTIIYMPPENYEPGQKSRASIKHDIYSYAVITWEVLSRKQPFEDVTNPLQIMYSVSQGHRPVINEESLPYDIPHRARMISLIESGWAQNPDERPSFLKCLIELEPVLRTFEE

IC50 [1] [nM]	IC50 ([2]; HEK-Blue-hNOD2 cells) [nM]	IC50 [2, 3] [nM]	Structure (SMILES)
< 2.5	6	–	CC(C)(C)n1cc(NC(=O)Cc2cc(Cl)c(Oc3ccnc4ccc(S(=N)(=O)C5CC5)cc34)cc2F)cn1 (single isomer, unassigned) [Compound 534, N-(1-(tert-butyl)-1H-pyrazol-4-yl)-2-(5-chloro-4-((6-(cyclopropanesulfonimidoyl)quinolin-4-yl)oxy)-2-fluorophenyl) acetamide]
2.8	–	80.2	[2H]C([2H])([2H])NC(=O)c1ccc2nccc(Oc3c(C)cc(CC(=O)Nc4cnn(C56CC(C5)C6)c4)cc3Cl)c2c1 [Compound 592, 4-(4-(2-((1-(bicyclo[1.1.1]pentan-1-yl)-1H-pyrazol-4-yl)amino)-2-oxoethyl)-2-chloro-6-methylphenoxy)-N-(methyl-d3)quinoline-6-carboxamide]
< 2.5	–	7.5	CC(C)(C)n1cc(NC(=O)Cc2ccc(Oc3ccnc4ccc(C(N)=O)cc34)c(C(F)F)c2)cn1 [Compound 462, 4-(4-(2-((1-(tert-butyl)-1H-pyrazol-4-yl)amino)-2-oxoethyl)-2-(difluoromethyl)phenoxy) quinoline-6-carboxamide]
< 2.5	–	18.2	Cc1cc(CC(=O)Nc2cnn(C(C)(C)C)c2)ccc1Oc1ccnc2ccc(S(=N)(=O)C(C)(C)C)cc12 (single isomer, unassigned) [Compound 549, N-(1-(tert-butyl)-1H-pyrazol-4-yl)-2-(3-methyl-4-((6-(2-methylpropan-2-ylsulfonimidoyl)quinolin-4-yl)oxy)phenyl) acetamide]
2.5	–	1.6	[2H]C([2H])([2H])C(n1cc(NC(=O)Cc2cc(C)c(Oc3ccnc4cc(F)c(C(N)=O)cc34)c(F)c2)cn1)(C([2H])([2H])[2H])C([2H])([2H])[2H] [Compound 608, 7-fluoro-4-(2-fluoro-6-methyl-4-(2-((1-(2-(methyl-d3)propan-2-yl-1,1,1,3,3,3-d6)-1H-pyrazol-4-yl)amino)-2-oxoethyl)phenoxy) quinoline-6-carboxamide]
< 2.5	–	1	CNC(=O)C(F)(F)c1ccc2nccc(Oc3cc(F)c(CC(=O)Nc4cnn(C(C)(C)C)c4)cc3C)c2c1 [Compound 573, 2-(4-(4-(2-((1-(tert-butyl)-1H-pyrazol-4-yl)amino)-2-oxoethyl)-5-fluoro-2-methylphenoxy)quinolin-6-yl)-2,2-difluoro-N-methylacetamide]
< 2.5	–	6.7	CCS(=N)(=O)c1ccc2nccc(Oc3ccc(CC(=O)Nc4cnn(C56CC(C5)C6)c4)cc3C)c2c1 (single isomer, unassigned) [Compound 593, N-(1-(bicyclo[1.1.1]pentan-1-yl)-1H-pyrazol-4-yl)-2-(4-((6-(ethylsulfonimidoyl)quinolin-4-yl)oxy)-3-methylphenyl) acetamide]
< 2.5	–	4.6	CNC(=O)c1cc2c(Oc3ccc(CC(=O)Nc4cnn(C(C)(C)C)c4)nc3C)ccnc2cc1F [Compound 613, 4-((6-(2-((1-(tert-butyl)-1H-pyrazol-4-yl)amino)-2-oxoethyl)-2-methylpyridin-3-yl)oxy)-7-fluoro-N-methylquinoline-6-carboxamide]
< 2.5	–	1.8	CSc1ccc2nccc(Oc3ccc(CC(=O)Nc4cnn(C(C)(C)C)c4)cc3C)c2c1 [Compound 486, N-(1-(tert-butyl)-1H-pyrazol-4-yl)-2-(3-methyl-4-((6-(methylthio)quinolin-4-yl)oxy)phenyl)acetamide]
< 2.5	–	0.4	Cc1c(Oc2ccnc3ccc(S(=N)(=O)C(C)C)cc23)ccc(CC(=O)Nc2cnn(C(C)(C)C)c2)c1F (single isomer, unassigned) [Compound 537, N-(1-(tert-butyl)-1H-pyrazol-4-yl)-2-(2-fluoro-3-methyl-4-((6-(propan-2-ylsulfonimidoyl)quinolin-4-yl)oxy)phenyl) acetamide]
< 2.5	–	0.8	Cc1c(Oc2ccnc3ccc(S(=N)(=O)C4CC4)cc23)ccc(CC(=O)Nc2cnn(C34CC(C3)C4)c2)c1F (single isomer, unassigned) [Compound 528, N-(1-(bicyclo[1.1.1]pentan-1-yl)-1H-pyrazol-4-yl)-2-(4-((6-(cyclopropanesul-fonimidoyl)quinolin-4-yl)oxy)-2-fluoro-3-methylphenyl) acetamide]
< 2.5	–	0.3	Cc1cc(CC(=O)Nc2cnn(C(C)(C)C)c2)c(F)cc1Oc1ccnc2ccc(-c3cnccc3C)cc12 [Compound 507, N-(1-(tert-butyl)-1H-pyrazol-4-yl)-2-(2-fluoro-5-methyl-4-((6-(4-methylpyridin-3-yl)quinolin-4-yl)oxy)phenyl)acetamide]
< 2.5	–	5.5	Cc1cc(CC(=O)Nc2cnn(C(C)(C)C)c2)c(F)cc1Oc1ccnc2ccc(-c3ccnnc3C)cc12 [Compound 525, N-(1-(tert-butyl)-1H-pyrazol-4-yl)-2-(2-fluoro-5-methyl-4-((6-(3-methylpyridazin-4-yl)quinolin-4-yl)oxy)phenyl)acetamide]
< 2.5	–	0.3	[2H]C([2H])([2H])c1cc(CC(=O)Nc2cnn(C(C)(C)C)c2)ccc1Oc1ccnc2ccc(S(=O)(=O)C([2H])([2H])[2H])cc12 [Compound 485, N-(1-(tert-butyl)-1H-pyrazol-4-yl)-2-(3-(methyl-d3)-4-((6-((methyl-d3)sulfonyl)quinolin-4-yl)oxy)phenyl)acetamide]
< 2.5	–	0.4	Cc1cc(CC(=O)Nc2cnn(C(C)(C)C)c2)c(F)cc1Oc1ccnc2ccc(-c3nc[nH]n3)cc12 [Compound 484, 2-(4-((6-(1H-1,2,4-triazol-3-yl)quinolin-4-yl)oxy)-2-fluoro-5-methylphenyl)-N-(1-(tert-butyl)-1H-pyrazol-4-yl)acetamide]
< 2.5	–	1.2	[2H]C([2H])([2H])NC(=O)c1cc2c(Oc3ccc(CC(=O)Nc4cnn(C(C)(C)C)c4)cc3C(F)F)ccnc2cc1OC [Compound 580, 4-(4-(2-((1-(tert-butyl)-1H-pyrazol-4-yl)amino)-2-oxoethyl)-2-(difluoromethyl)phenoxy)-7-methoxy-N-(methyl-d3)quinoline-6-carboxamide]
< 2.5	–	5.6	Cc1cc(CC(=O)Nc2cnn(C(C)(C)C)c2)ccc1Oc1ccnc2cc(F)c(S(=N)(=O)C3CC3)cc12 (single isomer, unassigned) [Compound 553, N-(1-(tert-butyl)-1H-pyrazol-4-yl)-2-(4-((6-(cyclopropane-sulfonimidoyl)-7-fluoroquinolin-4-yl)oxy)-3-methylphenyl) acetamide]
< 2.5	–	8	Cc1cc(CC(=O)Nc2cnn(C(C)(C)C)c2)cc(F)c1Oc1ccnc2cc(Cl)c(C(N)=O)cc12 [Compound 602, 4-(4-(2-((1-(tert-butyl)-1H-pyrazol-4-yl)amino)-2-oxoethyl)-2-fluoro-6-methylphenoxy)-7-chloroquinoline-6-carboxamide]
< 2.5	–	2.5	Cc1cc(CC(=O)Nc2cnn(C(C)(C)C)c2)c(F)cc1Oc1ccnc2ccc(-c3cccnc3C)cc12 [Compound 508, N-(1-(tert-butyl)-1H-pyrazol-4-yl)-2-(2-fluoro-5-methyl-4-((6-(2-methylpyridin-3-yl)quinolin-4-yl)oxy)phenyl)acetamide]
< 2.5	–	1.4	[2H]C([2H])([2H])C(n1cc(NC(=O)Cc2cc(C)c(Oc3ccnc4cc(F)c(C(=O)NC)cc34)c(F)c2)cn1)(C([2H])([2H])[2H])C([2H])([2H])[2H] [Compound 601, 7-fluoro-4-(2-fluoro-6-methyl-4-(2-((1-(2-(methyl-d3)propan-2-yl-1,1,1,3,3,3-d6)-1H-pyrazol-4-yl)amino)-2-oxoethyl)phenoxy)-N-methylquinoline-6-carboxamide]
